Data from US20100291592A1, “NOVEL MARKER FOR SENSITIVITY AGAINST SULFONAMIDE COMPOUND” (priority 2006, published 2010).

Tested on: EGFR1
Assay: EGFR1 expression level in cultured HCT116-C9 (mass spectrometry, 12C/13C-leucine labelling)
Format: cell-based, human
Conditions: HCT116-C9, 1 μM E7070, 24 hours, LC-MS/MS, treated/untreated
Experimental: First, RPMI-1640 (containing 10% FBS) supplemented with ^13C-labeled L-leucine (^13C-leucine, Cambridge Isotope Labs) and RPMI-1640 (containing 10% FBS) supplemented with non-isotope-labeled L-leucine (^12C-leucine) were prepared. Then, human colon cancer cell line HCT116-C9 was cultured in each medium through at least the fifth passage. HCT116-C9 was a subline separated from human colon cancer cell line HCT116 (obtained from ATCC) and known as a cell line highly sensitive to […] (Molecular Cancer Therapeutics, 2002, 1, 275-286). Thereafter, each cell was seeded in a 15-cm-diameter culture dish at a concentration of 1.0×10^7 cells/50 ml. Then, 24 hours later, 1 μM of […] was added to HCT116-C9 cultured in the ^12C-leucine-containing medium and nothing was added to HCTZ 16-C9 cultured in the ^13C-leucine-containing medium. These cells were continued culturing. Twenty-four hours later, the cells were washed twice with a phosphate buffer saline according to a routine procedure, added with 3 ml of M-PER (PIERCE) to solubilize the cells and then equal amounts of them were mixed. The cell lysates were dialyzed by a routine procedure to sublimate the solutions, and digested with trypsin, thereby obtaining peptide samples. The resulting peptide samples were analyzed with LC-MS/MS. […]
With NS(=O)(=O)c1ccc(S(=O)(=O)Nc2cccc3c(Cl)c[nH]c23)cc1 [E7070, N-(3-chloro-1H-indole-7-yl)-1,4-benzenedisulfonamide] the “Peak intensity ratio (12C/13C) of EGFR1-derived peptide fragment” value was 0.6-0.8.

Tested on: cancer cell line resistant to E7070
Assay: not given
Conditions: WO2006/030941 and WO2006/030947; cited from earlier work
In the case of Nc1ccc(S(=O)(=O)Nc2cnc3c(Cl)cccc3n2)cc1 [CQS, 2-sulfanylamide-5-chloroquinoxaline], the “Cross-resistance of E7070-resistant cancer cell line (antiproliferative activity)” value (from here on “Cross-resistance”) is given as “cross-resistance”. In the case of O=C(Nc1ccc(Cl)cc1)NS(=O)(=O)c1ccc2c(c1)CCC2 [LY186641, N-[[(4-chlorophenyl)amino]carbonyl]-2,3-dihydro-1H-indene-5-sulfonamide], the “Cross-resistance” value is listed as “cross-resistance”. For O=C(Nc1ccc(Cl)c(Cl)c1)NS(=O)(=O)c1ccc2c(c1)CCO2 [LY295501, N-[[(3,4-dichlorophenyl)amino]carbonyl]-2,3-dihydrobenzofuran-5-sulfonamide], the “Cross-resistance” value is listed as “cross-resistance”. In the case of O=C(NS(=O)(=O)c1ccc(Br)s1)c1ccc(Cl)cc1Cl [LY573636, N-(2,4-dichlorobenzoyl)-5-bromothiophene-2-sulfonamide], the “Cross-resistance” value is listed as “cross-resistance”. For O=C(NS(=O)(=O)c1ccc(Cl)cc1)c1ccc(Cl)cc1Cl [LY-ASAP, N-(2,4-dichlorobenzoyl)-4-chlorophenylsulfonamide], the “Cross-resistance” value is given as “cross-resistance”.
